Source: the NIST ThermoML archive (doi:10.1016/j.fluid.2008.11.001)
Numbers after ± are expanded uncertainties.

Experiments:
[1] = refractive index (Na D-line) (dimensionless); xn = mol fraction of the nth substance listed; conditions: 298.15 K, 101 kPa, Liquid, refractometer
[2] = xn = mol fraction of the nth substance listed; conditions: 298.15 K, 101 kPa, Liquid, Vibrating tube method
[3] = refractive index (Na D-line) (dimensionless); conditions: 298.15 K; 101.33 kPa; Liquid; refractometer
[4] = 298.15 K; 101 kPa; Liquid; Vibrating tube method

CC(C)CC(C)(C)C [2,2,4-trimethylpentane] + COC(=O)OC
x2 = 0
Conditions | mass density [kg/m3] | refractive index
[1] | – | 1.38898 ± 0.00014
[2] | 688.18 ± 0.15 | –

COC(=O)OC [dimethyl carbonate] + CC(C)CC(C)(C)C
Conditions | mass density, [2] [kg/m3] | refractive index, [1]
x1 = 0.0508 | 697.25 ± 0.15 | 1.38814 ± 0.00014
x1 = 0.1017 | 706.78 ± 0.15 | 1.38716 ± 0.00014
x1 = 0.1995 | 727.06 ± 0.15 | 1.38504 ± 0.00014
x1 = 0.3007 | 751.06 ± 0.15 | 1.38275 ± 0.00014
x1 = 0.4002 | 778.05 ± 0.17 | 1.38062 ± 0.00014
x1 = 0.5002 | 809.37 ± 0.2 | 1.37889 ± 0.00014
x1 = 0.5996 | 845.17 ± 0.18 | 1.37642 ± 0.00014
x1 = 0.7005 | 887.53 ± 0.16 | 1.37408 ± 0.00014
x1 = 0.8002 | 936.46 ± 0.12 | 1.37109 ± 0.00014
x1 = 0.9011 | 994.92 ± 0.07 | 1.36879 ± 0.00014
x1 = 0.9504 | 1027.38 ± 0.06 | 1.36722 ± 0.00014
x1 = 1 | 1063.04 ± 0.06 | 1.36654 ± 0.00014

CCO [ethanol] + COC(=O)OC
x2 = 0
Conditions | mass density [kg/m3] | refractive index
[1] | – | 1.35933 ± 0.00014
[2] | 785.33 ± 0.12 | –

CCO [ethanol]
Conditions | mass density [kg/m3] | refractive index
[3] | – | 1.35933 ± 0.00014
[4] | 785.33 ± 0.12 | –

CC(C)CC(C)(C)C [2,2,4-trimethylpentane]
Conditions | mass density [kg/m3] | refractive index
[3] | – | 1.38898 ± 0.00014
[4] | 688.18 ± 0.15 | –

COC(=O)OC [dimethyl carbonate] + CCO
Conditions | mass density, [2] [kg/m3] | refractive index, [1]
x1 = 0.051 | 805.05 ± 0.11 | 1.36039 ± 0.00014
x1 = 0.1 | 823.15 ± 0.11 | 1.3606 ± 0.00014
x1 = 0.1999 | 857.92 ± 0.11 | 1.36122 ± 0.00014
x1 = 0.2998 | 889.9 ± 0.12 | 1.36186 ± 0.00014
x1 = 0.4005 | 919.86 ± 0.13 | 1.36241 ± 0.00014
x1 = 0.5008 | 947.72 ± 0.15 | 1.36301 ± 0.00014
x1 = 0.6011 | 973.66 ± 0.11 | 1.36375 ± 0.00014
x1 = 0.6993 | 997.55 ± 0.08 | 1.36439 ± 0.00014
x1 = 0.8002 | 1020.67 ± 0.07 | 1.36504 ± 0.00014
x1 = 0.9008 | 1042.49 ± 0.06 | 1.36576 ± 0.00014
x1 = 0.9514 | 1053.11 ± 0.06 | 1.36614 ± 0.00014
x1 = 1 | 1063.04 ± 0.06 | 1.36654 ± 0.00014

COC(=O)OC [dimethyl carbonate]
Conditions | mass density [kg/m3] | refractive index
[3] | – | 1.36654 ± 0.00014
[4] | 1063.04 ± 0.06 | –
